# Read-outs that look alike come from different tables or passages of the source.
# Details: human
smiles,measurement,setting,value
Cn1c(=O)c2c(ncn2C)n(C)c1=O [caffeine],bioavailability,,~10%
same,bioavailability,inhaled or intranasal,80 to 90%
